Measurements reported in patent publication US20250250237A1, “ALKYLAMINE OR HETEROALKYLAMINE DERIVATIVES AS INHIBITORS OF NITRIC OXIDE SYNTHASES (NOS), PHARMACEUTICAL PRODUCTS THEREOF, AND METHODS THEREOF” (Gacter Inc., priority 2022, published 2025).
≈ marks a conversion by molar mass, not a printed value.

Legend:
[1] = Kinetic solubility assay (HPLC external standard); format: physicochemical; conditions: PBS pH 7.4 with 2% DMSO, PBS pH 7.4, 2% DMSO, 37° C.
Description: This kinetic solubility assay assesses our compounds in pH 7.4 PBS, mimicking physiological conditions relevant to oral absorption and tumor targeting. Test solutions were prepared by mixing 10 μL of stock with 490 μL of PBS (pH 7.4, 2% DMSO), followed by shaking at 37° C. for 3 hours, centrifugation, and a 2× dilution with methanol. Solubility was quantified in μM using HPLC analysis on a C18 column at 35° C., with a 5-85% acetonitrile gradient and 20 μL injections, performed in duplicate.
The assay was conducted using a modified HPLC-based external standard method. For Solution Preparation, (1) Buffer: Phosphate-buffered saline (PBS) at pH 7.4; (2) Compound Stock Solutions: 10 mM concentration in DMSO; (3) Test Solutions: Mix 10 μL of the stock solution with 490 μL of PBS in a 2 mL EP tube (final 2% DMSO v/v), shake at 37° C. for 3 hours, centrifuge at 12,000 RPM for 5-10 minutes, take 100 μL of supernatant, add 100 μL methanol, mix well to use as the test solution. […] For Data Analysis, concentration calculations are based on peak area ratios, accounting for the 2× dilution factor.

[2] = system: rats; conditions: doses as low as 10 mg/kg; cited from earlier work
[3] = system: mice; conditions: doses as low as 10 mg/kg; cited from earlier work

Structure (SMILES)	solubility at 3 h [1] [µM]	acute toxicity [2]	acute toxicity [3]
NCC[C@@H](Oc1cc(Cl)cc2[nH]cnc12)c1ccccc1 [GT-6041, (R)-3-((6-chloro-1H-benzo[d]imidazol-4-yl)oxy)-3-phenylpropan-1-amine]	157 (≈ 47.3 µg/mL)	–	–
NCC[C@@H](Oc1cc(Cl)cc2[nH]ncc12)c1ccccc1 [GT-6045]	188 (≈ 56.9 µg/mL)	–	–
CNCC[C@@H](Oc1cc(Cl)cc2[nH]cnc12)c1ccccc1 [GT-6058, (R)-3-((6-chloro-1H-benzo[d]imidazol-4-yl)oxy)—N-methyl-3-phenylpropan-1-amine]	177 (≈ 55.8 µg/mL)	–	–
CNCC[C@@H](Oc1cc(Cl)cc2[nH]ncc12)c1ccccc1 [GT-6059, (R)-3-((6-chloro-1H-indazol-4-yl)oxy)—N-methyl-3-phenylpropan-1-amine]	169 (≈ 53.5 µg/mL)	–	–
OCCNCC[C@@H](Oc1cc(Cl)cc2[nH]cnc12)c1ccccc1 [GT-6060, (R)-2-((3-((6-chloro-1H-benzo[d]imidazol-4-yl)oxy)-3-phenylpropyl)amino) ethan-1-ol]	176 (≈ 60.8 µg/mL)	–	–
N=C(N)SCCc1ccc(CCSC(=N)N)cc1 [PBIT, S,S′-1,4-phenylene-bis(1,2-ethanediyl)bis-isothiourea]	–	acutely toxic	acutely toxic
